In ChEMBL document CHEMBL1201862, “PubChem BioAssay data set” (2004):
Calls of active or inactive are those of the source.

Assays:
[1] = system: Vero; test: cytotoxicity of synthesized analogs in Vero 76, SAR follow-up, cytotoxicity control for West Nile virus antiviral project, Vero 76 cells (AID 2414); type: functional; details: Chlorocebus sabaeus
[2] = system: Vero; test: Vero E6 cell cytotoxicity, SAR follow-up, cytotoxicity control for West Nile virus antiviral project, synthesized analogs (AID 2244); type: functional; details: Chlorocebus sabaeus
[3] = system: Vero; test: West Nile virus antiviral activity, cell-based, CPE readout (AID 1621); type: functional; details: Chlorocebus sabaeus
[4] = system: Vero; test: West Nile virus cytopathic effect inhibition, cell-based (AID 2419); type: functional; details: Chlorocebus sabaeus
[5] = system: Vero; test: cytotoxicity of synthesized analogs in Vero cells, SAR follow-up, cytotoxicity control for West Nile virus antiviral project, cell-based, set II (AID 2402); type: functional; details: Chlorocebus sabaeus
[6] = A Cell Based Assay for the Identification of Probe candidate Compounds with Anti- Venezuelan Equine Encephalitis virus. [Related pubchem assays: 2409, 2419, 1621, 2238, 2405, 2024, 2065, 2402, 2414, 1635, 1650, 2244 ]; type: functional
[7] = system: Vero; test: West Nile virus CPE inhibition, SAR follow-up, cell-based, synthesized analogs (AID 2238); type: functional; details: Chlorocebus sabaeus
[8] = molecular target: T1, Kappa-type opioid receptor (Homo sapiens, UniProt P41145); type: functional
[9] = system: INS1; test: beta cell apoptosis inhibitors, cytokine rescue, dose response, luminescence, retest (AID 449756); type: functional, cell-based; details: Rattus norvegicus;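 note: cell death triggered by IL-1 beta plus TNF-alpha plus IFN-gamma mixture; protective hits raise ATP signal compared with cytokine alone wells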
[10] = molecular target: Beta-galactosidase (Escherichia coli, UniProt Q8VNN2); type: functional
[11] = molecular target: T2, Aminopeptidase N (Plasmodium falciparum FcB1/Columbia, UniProt O96935); test: P. falciparum M1AAP inhibitors, biochemical, fluorogenic H-Leu-NHMec substrate, 1536-well (AID 1445); set-up: species or system Plasmodium falciparum 3D7, 3D7
T2 sequence (O96935 whole entry): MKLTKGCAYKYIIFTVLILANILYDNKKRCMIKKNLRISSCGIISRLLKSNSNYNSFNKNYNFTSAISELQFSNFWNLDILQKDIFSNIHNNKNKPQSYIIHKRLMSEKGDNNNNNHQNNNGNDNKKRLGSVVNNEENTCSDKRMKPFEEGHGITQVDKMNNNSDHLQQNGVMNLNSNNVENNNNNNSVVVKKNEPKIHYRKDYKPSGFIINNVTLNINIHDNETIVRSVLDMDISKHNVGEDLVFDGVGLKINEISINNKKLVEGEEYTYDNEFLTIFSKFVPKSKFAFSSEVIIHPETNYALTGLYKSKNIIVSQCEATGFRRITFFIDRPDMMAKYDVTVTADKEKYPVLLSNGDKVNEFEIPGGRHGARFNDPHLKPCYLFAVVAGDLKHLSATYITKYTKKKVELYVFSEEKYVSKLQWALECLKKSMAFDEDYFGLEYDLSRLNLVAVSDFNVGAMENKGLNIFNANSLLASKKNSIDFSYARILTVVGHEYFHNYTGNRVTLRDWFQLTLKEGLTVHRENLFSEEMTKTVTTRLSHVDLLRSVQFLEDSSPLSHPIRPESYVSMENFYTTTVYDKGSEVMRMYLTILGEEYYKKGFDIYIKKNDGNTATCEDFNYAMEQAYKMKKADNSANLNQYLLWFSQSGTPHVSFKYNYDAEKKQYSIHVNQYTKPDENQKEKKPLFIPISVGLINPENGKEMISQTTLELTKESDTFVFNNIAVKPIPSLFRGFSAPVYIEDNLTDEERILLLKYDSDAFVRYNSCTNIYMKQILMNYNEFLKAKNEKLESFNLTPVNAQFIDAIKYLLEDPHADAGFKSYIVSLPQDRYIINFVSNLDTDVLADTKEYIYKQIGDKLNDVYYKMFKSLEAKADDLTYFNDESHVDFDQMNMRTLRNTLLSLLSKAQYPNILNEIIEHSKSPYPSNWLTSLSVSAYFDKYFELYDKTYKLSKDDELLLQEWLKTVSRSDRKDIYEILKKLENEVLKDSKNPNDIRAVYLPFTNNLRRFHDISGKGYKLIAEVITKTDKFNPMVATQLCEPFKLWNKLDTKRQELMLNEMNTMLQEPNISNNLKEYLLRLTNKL

[12] = molecular target: Beta Lactamase (Pseudomonas aeruginosa, UniProt Q932Y6); test: beta-lactamase reporter inhibitor potency, dose response, artefact control for TLR9-MyD88 binding inhibitor project, BLA reporter cells, FRET fluorescence (AID 588341); type: cell-based;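 note: cell based assay in CHO-K1 cells stably expressing beta-lactamase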
[13] = molecular target: T1, Kappa-type opioid receptor; type: functional; remark: listed apart in the source
[14] = system: CHO; test: cytotoxicity in TLR9-MyD88 CHO cells, dose response, cytotoxicity control for TLR9-MyD88 binding inhibitor project, cell-based, luminescence (AID 588339); type: functional, hamster; details: Cricetulus griseus;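 note: CHO cells stably coexpressing TLR9 and MyD88 fusions from primary screen; compound exposure lasted 48 hours before viability readout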
[15] = molecular target: Dual specificity tyrosine-phosphorylation-regulated kinase 1A (Rattus norvegicus, UniProt Q63470); type: biochemical, Homo sapiens
[16] = Fluorescence-based cell-based high throughput dose response assay for inhibitors of the interaction of nucleotide-binding oligomerization domain containing 2 (NOD2) and the receptor-interacting serine-threonine kinase 2 (RIPK2).; type: functional; details: Homo sapiens
[17] = molecular target: T3, Long-chain-fatty-acid--AMP ligase FadD28 (Mycobacterium tuberculosis, UniProt P9WQ59); test: Fluorescence polarization aasay to screen for inhibitors that compete for the binding of FadD28 to a bisubstrate Measured in Biochemical System Using Plate Reader - 2147-01_Inhibitor_Dose_CherryPick_Activity.; type: functional, Mycobacterium tuberculosis H37Rv
T3 sequence (P9WQ59 whole entry): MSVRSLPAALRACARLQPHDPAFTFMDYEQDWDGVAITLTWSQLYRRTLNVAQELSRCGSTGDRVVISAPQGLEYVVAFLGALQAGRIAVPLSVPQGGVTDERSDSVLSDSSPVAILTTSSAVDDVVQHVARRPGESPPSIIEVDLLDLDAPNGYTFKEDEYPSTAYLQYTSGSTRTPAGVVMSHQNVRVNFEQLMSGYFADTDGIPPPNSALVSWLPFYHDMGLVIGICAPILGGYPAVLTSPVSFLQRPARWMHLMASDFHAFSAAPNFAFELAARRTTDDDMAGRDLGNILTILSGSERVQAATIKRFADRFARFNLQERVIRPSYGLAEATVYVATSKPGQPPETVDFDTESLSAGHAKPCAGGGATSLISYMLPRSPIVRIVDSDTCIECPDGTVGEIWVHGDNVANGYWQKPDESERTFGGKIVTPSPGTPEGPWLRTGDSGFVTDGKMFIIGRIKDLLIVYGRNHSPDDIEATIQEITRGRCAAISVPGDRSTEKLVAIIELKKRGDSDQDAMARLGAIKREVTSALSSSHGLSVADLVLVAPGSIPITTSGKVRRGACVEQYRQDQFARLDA

[18] = molecular target: Envelope glycoprotein gp160 (Human immunodeficiency virus 1, UniProt Q6QLK5); test: inhibitors of HIV fusion peptide binding, primary screen, biochemical, uHTS, fluorescence dequenching (AID 1986)
[19] = HIV-1 Env-mediated cell fusion inhibitors, dose response, CCR5-tropic Env (AID 2279); type: functional
[20] = system: Streptococcus sp. 'group A'; test: growth inhibition of control SK(-) GAS strain, dose response, counter-screen for streptokinase expression inhibitor project, luminescence, kanamycin, BacTiterGlo, confirmation (AID 1900); type: functional, organism-based
[21] = system: Streptococcus; test: Group A Streptococcus viability loss, dose response, counter-screen for streptokinase expression inhibitor project, luminescence, BacTiterGlo (AID 1915); type: functional, organism-based;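 note: potency for reduction of bacterial viability or growth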
[22] = molecular target: T4, G-protein coupled receptor 35 (Homo sapiens, UniProt Q9HC97); test: SAR analysis of Antagonists of the GPR35 Receptor using an Image-Based Assay - Set 5. [Related pubchem assays (depositor defined):AID2058, AID2079]; type: functional
[23] = molecular target: G-protein coupled receptor 55 (Homo sapiens, UniProt Q9Y2T6); test: SAR Analysis of Selective Antagonists of GPR55 using an Image-Based Assay - Set 3. [Related pubchem assays (depositor defined):AID2058, AID2079]; type: functional
[24] = molecular target: T4, G-protein coupled receptor 35; test: SAR Analysis for the identification of Selective Antagonists of ERK1/2 Activity in GPR35-Overexpressing U2OS Cells - Set 2. [Related pubchem assays (depositor defined):AID2058, AID2079]; type: functional, cell-based
[25] = molecular target: T5, Carboxy-terminal domain RNA polymerase II polypeptide A small phosphatase 1 (Homo sapiens, UniProt Q9GZU7); test: inhibitors of CTDSP1, concentration-response testing, biochemical assay, absorbance-based, actives from ultra-high-throughput screening (AID 540297); type: functional
T5 sequence (Q9GZU7 whole entry): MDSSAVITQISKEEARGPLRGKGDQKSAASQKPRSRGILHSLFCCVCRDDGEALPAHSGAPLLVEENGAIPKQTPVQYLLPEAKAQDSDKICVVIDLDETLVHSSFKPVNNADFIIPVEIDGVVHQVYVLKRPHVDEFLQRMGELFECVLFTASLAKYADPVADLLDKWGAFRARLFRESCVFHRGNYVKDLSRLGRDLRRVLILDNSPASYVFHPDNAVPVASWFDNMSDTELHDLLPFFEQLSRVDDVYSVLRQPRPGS

[26] = molecular target: T6, Tyrosine-protein phosphatase non-receptor type 22 (Homo sapiens, UniProt Q9Y2R2); type: functional
T6 sequence (Q9Y2R2 whole entry): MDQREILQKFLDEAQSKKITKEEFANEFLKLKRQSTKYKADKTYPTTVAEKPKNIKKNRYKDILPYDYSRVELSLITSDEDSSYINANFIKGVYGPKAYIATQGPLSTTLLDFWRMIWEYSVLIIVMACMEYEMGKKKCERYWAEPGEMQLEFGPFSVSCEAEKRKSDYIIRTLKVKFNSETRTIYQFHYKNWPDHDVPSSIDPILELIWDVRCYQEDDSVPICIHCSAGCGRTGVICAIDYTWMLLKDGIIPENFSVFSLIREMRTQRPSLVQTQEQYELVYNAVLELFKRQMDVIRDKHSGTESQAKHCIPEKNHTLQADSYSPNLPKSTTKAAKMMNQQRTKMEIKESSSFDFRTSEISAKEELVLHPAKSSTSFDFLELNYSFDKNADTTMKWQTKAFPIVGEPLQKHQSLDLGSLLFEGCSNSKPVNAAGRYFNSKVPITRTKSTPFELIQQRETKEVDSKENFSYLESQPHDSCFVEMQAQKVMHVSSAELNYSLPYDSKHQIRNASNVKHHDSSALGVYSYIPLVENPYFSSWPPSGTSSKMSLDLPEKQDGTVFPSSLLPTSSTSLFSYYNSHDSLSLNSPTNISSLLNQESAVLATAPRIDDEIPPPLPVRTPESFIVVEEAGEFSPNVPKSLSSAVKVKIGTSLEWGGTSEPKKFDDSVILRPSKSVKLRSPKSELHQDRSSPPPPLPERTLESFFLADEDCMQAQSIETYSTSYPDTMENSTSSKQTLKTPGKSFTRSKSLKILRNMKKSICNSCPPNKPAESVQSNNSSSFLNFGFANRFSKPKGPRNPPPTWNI

[27] = molecular target: T7, Tyrosine-protein phosphatase non-receptor type 7 (Homo sapiens, UniProt P35236); type: functional
T7 sequence (P35236 whole entry): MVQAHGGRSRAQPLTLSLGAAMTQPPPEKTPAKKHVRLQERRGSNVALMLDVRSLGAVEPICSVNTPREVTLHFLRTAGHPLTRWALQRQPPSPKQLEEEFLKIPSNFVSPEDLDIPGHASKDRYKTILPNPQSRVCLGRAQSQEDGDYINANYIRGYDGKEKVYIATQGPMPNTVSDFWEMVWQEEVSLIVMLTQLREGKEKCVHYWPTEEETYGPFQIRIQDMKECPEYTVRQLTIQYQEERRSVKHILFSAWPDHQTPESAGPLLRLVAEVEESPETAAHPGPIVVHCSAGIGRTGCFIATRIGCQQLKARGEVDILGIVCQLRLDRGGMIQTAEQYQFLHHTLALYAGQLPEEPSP

[28] = molecular target: T6, Tyrosine-protein phosphatase non-receptor type 22; test: inhibitors of LYP phosphatase, biochemical, fluorescence intensity, uHTS (AID 1779)
[29] = molecular target: T6, Tyrosine-protein phosphatase non-receptor type 22; type: functional; remark: listed apart in the source

T1 sequence (P41145 whole entry): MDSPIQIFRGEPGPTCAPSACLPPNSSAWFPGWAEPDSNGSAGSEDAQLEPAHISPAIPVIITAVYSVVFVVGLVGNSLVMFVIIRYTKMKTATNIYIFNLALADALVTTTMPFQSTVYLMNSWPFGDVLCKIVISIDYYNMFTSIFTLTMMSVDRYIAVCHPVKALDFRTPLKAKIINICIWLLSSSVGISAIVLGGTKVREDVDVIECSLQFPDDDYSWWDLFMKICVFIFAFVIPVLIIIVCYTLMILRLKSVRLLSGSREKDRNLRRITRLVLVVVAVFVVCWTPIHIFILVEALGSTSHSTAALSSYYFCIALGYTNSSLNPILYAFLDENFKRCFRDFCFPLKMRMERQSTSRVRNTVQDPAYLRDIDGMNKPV
T4 sequence (Q9HC97 whole entry): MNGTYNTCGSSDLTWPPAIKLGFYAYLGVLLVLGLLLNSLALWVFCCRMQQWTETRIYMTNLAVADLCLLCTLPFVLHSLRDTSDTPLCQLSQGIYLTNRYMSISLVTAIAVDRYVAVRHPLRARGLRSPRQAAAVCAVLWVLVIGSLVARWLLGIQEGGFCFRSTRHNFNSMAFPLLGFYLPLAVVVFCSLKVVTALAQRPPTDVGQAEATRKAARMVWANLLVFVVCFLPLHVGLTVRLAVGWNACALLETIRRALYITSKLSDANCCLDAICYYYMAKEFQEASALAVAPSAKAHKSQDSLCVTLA
Sequence of Beta Lactamase (Q932Y6 whole entry): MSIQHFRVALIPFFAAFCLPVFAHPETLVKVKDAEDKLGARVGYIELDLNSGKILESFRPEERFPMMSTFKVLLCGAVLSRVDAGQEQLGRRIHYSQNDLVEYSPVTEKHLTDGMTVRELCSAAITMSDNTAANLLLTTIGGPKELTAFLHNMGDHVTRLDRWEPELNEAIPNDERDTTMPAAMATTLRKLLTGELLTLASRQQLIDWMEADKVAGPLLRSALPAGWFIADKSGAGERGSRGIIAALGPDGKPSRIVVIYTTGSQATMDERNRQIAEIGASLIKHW
Sequence of G-protein coupled receptor 55 (Q9Y2T6 whole entry): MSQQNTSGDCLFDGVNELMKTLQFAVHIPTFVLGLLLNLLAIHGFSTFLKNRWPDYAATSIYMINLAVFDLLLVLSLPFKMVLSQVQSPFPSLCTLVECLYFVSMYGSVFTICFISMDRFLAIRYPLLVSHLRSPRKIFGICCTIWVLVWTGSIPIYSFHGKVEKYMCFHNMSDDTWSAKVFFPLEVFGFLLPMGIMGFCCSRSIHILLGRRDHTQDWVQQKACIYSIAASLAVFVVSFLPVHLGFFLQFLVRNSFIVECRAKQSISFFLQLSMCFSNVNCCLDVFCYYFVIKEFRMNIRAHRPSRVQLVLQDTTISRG
Sequence of Envelope glycoprotein gp160 (Q6QLK5 whole entry, the tested form may be a part): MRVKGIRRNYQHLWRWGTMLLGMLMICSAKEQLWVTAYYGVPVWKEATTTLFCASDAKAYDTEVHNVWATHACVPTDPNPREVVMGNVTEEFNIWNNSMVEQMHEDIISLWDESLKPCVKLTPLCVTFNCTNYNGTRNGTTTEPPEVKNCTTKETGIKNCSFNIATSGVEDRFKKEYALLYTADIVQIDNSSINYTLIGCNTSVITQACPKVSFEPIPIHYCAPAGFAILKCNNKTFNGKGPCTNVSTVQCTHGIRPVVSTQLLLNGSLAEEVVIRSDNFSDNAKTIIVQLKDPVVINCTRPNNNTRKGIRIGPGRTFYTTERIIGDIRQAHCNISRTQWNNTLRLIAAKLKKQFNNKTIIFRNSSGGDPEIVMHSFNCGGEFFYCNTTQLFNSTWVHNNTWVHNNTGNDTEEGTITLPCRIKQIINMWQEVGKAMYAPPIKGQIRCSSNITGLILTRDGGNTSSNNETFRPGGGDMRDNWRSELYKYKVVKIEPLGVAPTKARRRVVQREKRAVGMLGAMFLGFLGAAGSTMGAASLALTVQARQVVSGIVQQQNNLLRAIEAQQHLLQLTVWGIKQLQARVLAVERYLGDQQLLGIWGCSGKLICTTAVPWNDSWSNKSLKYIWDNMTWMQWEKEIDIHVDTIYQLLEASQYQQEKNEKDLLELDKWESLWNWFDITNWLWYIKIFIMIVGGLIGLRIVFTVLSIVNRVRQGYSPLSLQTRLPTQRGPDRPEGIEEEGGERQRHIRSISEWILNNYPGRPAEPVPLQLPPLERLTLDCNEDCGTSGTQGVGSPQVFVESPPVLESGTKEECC
Sequence of Beta-galactosidase (Q8VNN2 whole entry): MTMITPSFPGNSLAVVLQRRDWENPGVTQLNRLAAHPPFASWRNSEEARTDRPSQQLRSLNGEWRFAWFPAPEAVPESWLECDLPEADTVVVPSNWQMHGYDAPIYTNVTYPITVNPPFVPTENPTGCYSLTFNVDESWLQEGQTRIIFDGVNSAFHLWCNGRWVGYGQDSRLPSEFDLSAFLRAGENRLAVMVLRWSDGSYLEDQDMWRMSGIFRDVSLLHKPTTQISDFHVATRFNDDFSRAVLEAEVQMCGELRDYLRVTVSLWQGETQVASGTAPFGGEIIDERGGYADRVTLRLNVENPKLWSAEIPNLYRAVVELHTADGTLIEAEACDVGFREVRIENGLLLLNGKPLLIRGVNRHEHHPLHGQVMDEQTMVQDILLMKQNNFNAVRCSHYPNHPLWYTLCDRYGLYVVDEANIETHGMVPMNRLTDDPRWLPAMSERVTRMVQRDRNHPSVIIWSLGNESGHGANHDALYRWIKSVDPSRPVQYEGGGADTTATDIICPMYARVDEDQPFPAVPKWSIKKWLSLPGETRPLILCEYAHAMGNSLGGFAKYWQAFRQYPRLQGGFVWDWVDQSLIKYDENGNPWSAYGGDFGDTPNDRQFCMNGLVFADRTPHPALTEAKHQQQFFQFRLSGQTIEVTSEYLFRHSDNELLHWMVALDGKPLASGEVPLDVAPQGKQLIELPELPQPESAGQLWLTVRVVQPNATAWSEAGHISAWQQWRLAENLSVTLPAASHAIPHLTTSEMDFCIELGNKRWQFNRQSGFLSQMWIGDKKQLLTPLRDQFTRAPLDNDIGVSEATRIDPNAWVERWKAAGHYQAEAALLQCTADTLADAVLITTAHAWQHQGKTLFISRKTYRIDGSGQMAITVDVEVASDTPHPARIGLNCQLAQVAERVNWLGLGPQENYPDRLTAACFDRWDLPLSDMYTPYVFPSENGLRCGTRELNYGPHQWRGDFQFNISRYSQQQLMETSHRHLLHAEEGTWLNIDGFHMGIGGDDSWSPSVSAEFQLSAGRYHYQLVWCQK

CN(C)CCCN1c2ccc([N+](=O)[O-])cc2CCc2cc([N+](=O)[O-])ccc21
CC50 [1]: 18.5 µM (active) | CC50 [2]: 21.6 µM (active) | IC50 [3]: 10.8 µM (active) | IC50 [4]: 11.4 µM (active) | CC50 [5]: 15.4 µM (active) | IC50 [6]: 8.59 µM (active) | IC50 [7]: 13.9 µM (active)

N#CC(C#N)=C1C=CC=CN1/C(=C\c1ccco1)C(=O)c1ccccc1
IC50 [8]: 18.9 µM | AC50 [9]: 7.4 µM (active) | EC50 [10]: > 31.5 µM (inactive) | IC50 [11]: 65.2 µM (active) | IC50 [12]: 15.9 µM (inactive) | IC50 [13]: 4.86 µM (active) | IC50 [14]: 1.64 µM (active) | AC50 [15]: 5.46 µM (active) | IC50 [16]: 1.02 µM (active)

Oc1cc(-c2ccccc2)nc2c(-c3ccccc3)c(C(F)(F)F)nn12
AC50 [17]: 54.1 µM (active) | IC50 [18]: 17.5 µM (active) | IC50 [19]: > 50 µM (active) | EC50 [20]: 3.47 µM (active) | EC50 [21]: 4.84 µM (active)

CNC(=S)N/N=C/c1c(C(=O)OC)cnn1-c1ccc(Cl)cc1
IC50 [22]: 1.25 µM (active) | IC50 [23]: > 32 µM (inactive) | IC50 [24]: 4.11 µM (active)

CCOc1cc(/C=C2/NC(=O)NC2=O)cc(Br)c1OCc1ccc(C(=O)O)cc1
IC50 [25]: 5.9 µM (active) | IC50 [26]: 5.76 µM (active) | IC50 [27]: 4.2 µM (active) | IC50 [28]: 8.82 µM (active) | IC50 [29]: 2.39 µM (active)
